Measured values as given in patent US10738030B2, “Modulators of cystic fibrosis transmembrane conductance regulator” (Vertex Pharmaceuticals Incorporated, priority 2016, dated 2020).
pEC50: −log10 of the molar value.

Target: T1, F508del (Homo sapiens, UniProt P13569, DEL508-508)
T1 construct: expressed in transfected cells
Experiment: Membrane potential optical assay (FRET voltage-sensor dyes), identification of correction compounds
Format: cell-based
Details: NIH3T3 cells stably expressing F508del, procedures described above; for Emax: maximum efficacy, read-out: Max Efficacy; for pEC50: modulation of CFTR activity
Procedure: (§1) NIH3T3 mouse fibroblasts stably expressing F508del are used for optical measurements of membrane potential. The cells are maintained at 37° C. in 5% CO2 and 90% humidity in Dulbecco's modified Eagle's medium supplemented with 2 mM glutamine, 10% fetal bovine serum, 1×NEAA, β-ME, 1× pen/strep, and 25 mM HEPES in 175 cm^2 culture flasks. For all optical assays, the cells were seeded at 12,000 cells/well in 384-well matrigel-coated plates and cultured for 18-24 hrs at 37° C. for the potentiator assay. For the correction assays, the cells are cultured at 37° C. with and without compounds for 18-24 hours.
Membrane potential optical methods for assaying F508del modulation properties of compounds.
The optical membrane potential assay utilized voltage-sensitive FRET sensors described by Gonzalez and Tsien (See Gonzalez, J. E. and R. Y. Tsien (1995) “Voltage sensing by fluorescence resonance energy transfer in single cells” Biophys J 69(4): 1272-80, and Gonzalez, J. E. and R. Y. Tsien (1997) “Improved indicators of cell membrane potential that use fluorescence resonance energy transfer” Chem Biol 4(4): 269-77) in combination with instrumentation for measuring fluorescence changes such as the Voltage/Ion Probe Reader (VIPR) (See, Gonzalez, J. E., K. Oades, et al. (1999) “Cell-based assays and instrumentation for screening ion-channel targets” Drug Discov Today 4(9): 431-439).
These voltage sensitive assays are based on the change in fluorescence resonant energy transfer (FRET) between the membrane-soluble, voltage-sensitive dye, DiSBAC2(3), and a fluorescent phospholipid, CC2-DMPE, which is attached to the outer leaflet of the plasma membrane and acts as a FRET donor. Changes in membrane potential (Vm) cause the negatively charged DiSBAC2(3) to redistribute across the plasma membrane and the amount of energy transfer from CC2-DMPE changes accordingly. The changes in fluorescence emission were monitored using VIPR™ II, which is an integrated liquid handler and fluorescent detector designed to conduct cell-based screens in 96- or 384-well microtiter plates.
To identify small molecules that correct the trafficking defect associated with F508del; a single-addition HTS assay format was developed. The cells were incubated in serum-free medium for 16 hrs at 37° C. in the presence or absence (negative control) of test compound. As a positive control, cells plated in 384-well plates were incubated for 16 hrs at 27° C. to “temperature-correct” F508del. The cells were subsequently rinsed 3× with Krebs Ringers solution and loaded with the voltage-sensitive dyes. To activate F508del, 10 μM forskolin and the CFTR potentiator, genistein (20 μM), were added along with Cl^−-free medium to each well. The addition of Cl^−-free medium promoted Cl^− efflux in response to F508del activation and the resulting membrane depolarization was optically monitored using the FRET-based voltage-sensor dyes.
• Bath Solution #1: (in mM) NaCl 160, KCl 4.5, CaCl2 2, MgCl2 1, HEPES 10, pH 7.4 with NaOH. • Chloride-free bath solution: Chloride salts in Bath Solution #1 (above) are substituted with gluconate salts. • CC2-DMPE: Prepared as a 10 mM stock solution in DMSO and stored at −20° C. • DiSBAC2(3): Prepared as a 10 mM stock in DMSO and stored at −20° C. Cell Culture
as §1, with “seeded at 30,000/well in 384-well” for “seeded at 12,000 cells/well in 384-well”, “cultured for 2 hrs at” for “cultured for 18-24 hrs at”, “37° C. before culturing at 27° C. for 24 hrs for the” for “37° C. for the”, “cultured at 27° C. or 37° C.” for “cultured at 37° C.”, “compounds for 16-24 hours.” for “compounds for 18-24 hours.”

T1 sequence (P13569 with tags, fused parts or gaps DEL508-508): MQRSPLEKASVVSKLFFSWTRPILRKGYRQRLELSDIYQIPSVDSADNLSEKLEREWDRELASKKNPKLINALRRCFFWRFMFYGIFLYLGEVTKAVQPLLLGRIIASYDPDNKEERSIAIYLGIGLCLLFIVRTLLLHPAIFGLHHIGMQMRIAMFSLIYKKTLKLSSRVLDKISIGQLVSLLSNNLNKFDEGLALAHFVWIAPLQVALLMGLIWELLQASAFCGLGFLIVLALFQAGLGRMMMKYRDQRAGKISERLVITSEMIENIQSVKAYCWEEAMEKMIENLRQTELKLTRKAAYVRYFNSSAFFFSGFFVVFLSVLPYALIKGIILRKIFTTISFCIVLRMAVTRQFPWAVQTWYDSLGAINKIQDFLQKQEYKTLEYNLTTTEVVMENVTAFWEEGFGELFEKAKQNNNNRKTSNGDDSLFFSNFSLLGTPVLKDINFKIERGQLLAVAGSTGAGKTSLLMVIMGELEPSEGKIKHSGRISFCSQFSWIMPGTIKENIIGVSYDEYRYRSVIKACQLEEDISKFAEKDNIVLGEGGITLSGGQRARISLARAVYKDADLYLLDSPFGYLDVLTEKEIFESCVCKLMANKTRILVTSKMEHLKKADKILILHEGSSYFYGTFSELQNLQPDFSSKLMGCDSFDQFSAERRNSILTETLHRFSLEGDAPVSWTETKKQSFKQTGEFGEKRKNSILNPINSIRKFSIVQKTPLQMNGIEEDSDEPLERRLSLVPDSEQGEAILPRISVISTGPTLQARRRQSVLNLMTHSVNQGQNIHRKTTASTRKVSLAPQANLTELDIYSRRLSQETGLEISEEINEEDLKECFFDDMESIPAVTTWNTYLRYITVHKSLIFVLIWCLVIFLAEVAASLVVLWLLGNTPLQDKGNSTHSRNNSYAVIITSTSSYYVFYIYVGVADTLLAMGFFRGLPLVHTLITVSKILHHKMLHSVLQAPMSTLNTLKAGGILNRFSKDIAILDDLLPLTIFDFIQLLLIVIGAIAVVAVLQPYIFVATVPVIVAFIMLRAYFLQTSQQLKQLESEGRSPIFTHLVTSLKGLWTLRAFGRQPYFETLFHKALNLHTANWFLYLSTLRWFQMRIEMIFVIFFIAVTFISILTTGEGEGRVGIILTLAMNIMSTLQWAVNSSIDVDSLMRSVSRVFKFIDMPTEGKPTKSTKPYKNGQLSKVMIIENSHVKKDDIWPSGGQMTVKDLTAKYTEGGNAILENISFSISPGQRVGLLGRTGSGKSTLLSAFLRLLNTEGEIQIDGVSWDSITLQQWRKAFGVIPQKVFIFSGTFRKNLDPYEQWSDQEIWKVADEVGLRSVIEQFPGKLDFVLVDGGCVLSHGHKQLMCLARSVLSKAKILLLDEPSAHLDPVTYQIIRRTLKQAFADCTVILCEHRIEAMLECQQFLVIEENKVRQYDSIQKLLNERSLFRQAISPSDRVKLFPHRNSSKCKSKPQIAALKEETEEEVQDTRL

SMILES	Emax [%]	pEC50
CC(C)COc1cc(F)cc(-c2ccc(C(=O)NS(=O)(=O)c3cccc(N)n3)c(OC(C(C)C)C(C)C)n2)c1 [Compound 26, N-[(6-amino-2-pyridyl)sulfonyl]-6-(3-fluoro-5-isobutoxy-phenyl)-2-(1-isopropyl-2-methyl-propoxy)pyridine-3-carboxamide]	30 to 80	> 5.52
CC(C)COc1cc(F)cc(-c2ccc(C(=O)NS(=O)(=O)c3cccc(N)n3)c(OCCOC(C)(C)C)n2)c1 [Compound 4, N-[(6-amino-2-pyridyl)sulfonyl]-2-(2-tert-butoxyethoxy)-6-(3-fluoro-5-isobutoxy-phenyl)pyridine-3-carboxamide]	30 to 80	> 5.52
CCOc1cccc2c1CN(CC(C)(C)C)C2(C)C(=O)NS(=O)(=O)c1cccc(=O)[nH]1 (stereo not drawn) [Compound 85, 2-(2,2-dimethylpropyl)-4-ethoxy-1-methyl-N-[(6-oxo-1H-pyridin-2-yl)sulfonyl]isoindoline-1-carboxamide]	≤ 30	< 5.00
CCC(C)C(C)Oc1nc(-c2cc(F)cc(OCC(C)C)c2)ccc1C(=O)NS(=O)(=O)c1cccc(N)n1 (stereo not drawn) [Compound 12, N-[(6-amino-2-pyridyl)sulfonyl]-2-(1,2-dimethylbutoxy)-6-(3-fluoro-5-isobutoxy-phenyl)pyridine-3-carboxamide]	> 80	> 5.52
CCC(C)(C)Oc1nc(-c2cc(F)cc(OCC(C)C)c2)ccc1C(=O)NS(=O)(=O)c1cccc(N)n1 [Compound 44, N-[(6-amino-2-pyridyl)sulfonyl]-2-(1,1-dimethylpropoxy)-6-(3-fluoro-5-isobutoxy-phenyl)pyridine-3-carboxamide]	> 80	> 5.52
COCC(C)(C)Oc1nc(-c2cc(F)cc(OCC(C)C)c2)ccc1C(=O)NS(=O)(=O)c1cccc(N)n1 [Compound 51, N-[(6-amino-2-pyridyl)sulfonyl]-6-(3-fluoro-5-isobutoxy-phenyl)-2-(2-methoxy-1,1-dimethyl-ethoxy)pyridine-3-carboxamide]	30 to 80	> 5.52
CCC(C)(C)CCOc1nc(-c2cc(F)cc(OCC(C)C)c2)ccc1C(=O)NS(=O)(=O)c1cccc(N)n1 [Compound 77, N-[(6-amino-2-pyridyl)sulfonyl]-2-(3,3-dimethylpentoxy)-6-(3-fluoro-5-isobutoxy-phenyl)pyridine-3-carboxamide]	30 to 80	> 5.52
CCC(COC)Oc1nc(-c2cc(F)cc(OCC(C)C)c2)ccc1C(=O)NS(=O)(=O)c1cccc(N)n1 (stereo not drawn) [Compound 18, N-[(6-amino-2-pyridyl)sulfonyl]-6-(3-fluoro-5-isobutoxy-phenyl)-2-[1-(methoxymethyl)propoxy]pyridine-3-carboxamide]	30 to 80	> 5.52
CCN(C)c1nc(-c2cc(F)cc(OCC(C)C)c2)ccc1C(=O)NS(=O)(=O)c1cccc(N)n1 [Compound 67, N-[(6-amino-2-pyridyl)sulfonyl]-2-[ethyl(methyl)amino]-6-(3-fluoro-5-isobutoxy-phenyl)pyridine-3-carboxamide]	> 80	> 5.52
CC(C)COc1cc(F)cc(-c2ccc(C(=O)NS(=O)(=O)c3cccc(N)n3)c(NCCC(C)(C)O)n2)c1 [Compound 80, N-[(6-amino-2-pyridyl)sulfonyl]-6-(3-fluoro-5-isobutoxy-phenyl)-2-[(3-hydroxy-3-methyl-butyl)amino]pyridine-3-carboxamide]	30 to 80	< 5.00
CC[C@H](C)Oc1nc(-c2cc(F)cc(OCC(C)C)c2)ccc1C(=O)NS(=O)(=O)c1cccc(N)n1 [Compound 29, N-[(6-amino-2-pyridyl)sulfonyl]-6-(3-fluoro-5-isobutoxy-phenyl)-2-[(1S)-1-methylpropoxy]pyridine-3-carboxamide]	30 to 80	> 5.52
CCC(CC)Oc1nc(-c2cc(F)cc(OCC(C)C)c2)ccc1C(=O)NS(=O)(=O)c1cccc(N)n1 [Compound 47, N-[(6-amino-2-pyridyl)sulfonyl]-2-(1-ethylpropoxy)-6-(3-fluoro-5-isobutoxy-phenyl)pyridine-3-carboxamide]	> 80	> 5.52
C=CCOc1nc(-c2cc(F)cc(OCC(C)C)c2)ccc1C(=O)NS(=O)(=O)c1cccc(N)n1 [Compound 43, 2-allyloxy-N-[(6-amino-2-pyridyl)sulfonyl]-6-(3-fluoro-5-isobutoxy-phenyl)pyridine-3-carboxamide]	30 to 80	> 5.52
CCCN(C)c1nc(-c2cc(F)cc(OCC(C)C)c2)ccc1C(=O)NS(=O)(=O)c1cccc(N)n1 [Compound 64, N-[(6-amino-2-pyridyl)sulfonyl]-6-(3-fluoro-5-isobutoxy-phenyl)-2-[methyl(propyl)amino]pyridine-3-carboxamide]	> 80	> 5.52
CC(C)COc1cc(F)cc(-c2ccc(C(=O)NS(=O)(=O)c3cccc(N)n3)c(OC(C)C(F)(F)C(F)F)n2)c1 (stereo not drawn) [Compound 6, N-[(6-amino-2-pyridyl)sulfonyl]-6-(3-fluoro-5-isobutoxy-phenyl)-2-(2,2,3,3-tetrafluoro-1-methyl-propoxy)pyridine-3-carboxamide]	30 to 80	> 5.52
CC(C)COc1cc(F)cc(-c2ccc(C(=O)NS(=O)(=O)c3cccc(N)n3)c(OC/C=C/C(F)(F)F)n2)c1 [Compound 83, N-[(6-amino-2-pyridyl)sulfonyl]-6-(3-fluoro-5-isobutoxy-phenyl)-2-[(E)-4,4,4-trifluorobut-2-enoxy]pyridine-3-carboxamide]	30 to 80	> 5.52
CCCC(C)C(C)Oc1nc(-c2cc(F)cc(OCC(C)C)c2)ccc1C(=O)NS(=O)(=O)c1cccc(N)n1 (stereo not drawn) [Compound 62, N-[(6-amino-2-pyridyl)sulfonyl]-2-(1,2-dimethylpentoxy)-6-(3-fluoro-5-isobutoxy-phenyl)pyridine-3-carboxamide]	30 to 80	> 5.52
CC(C)CCOc1nc(-c2cc(F)cc(OCC(C)C)c2)ccc1C(=O)NS(=O)(=O)c1cccc(N)n1 [Compound 2, N-[(6-amino-2-pyridyl)sulfonyl]-6-(3-fluoro-5-isobutoxy-phenyl)-2-isopentyloxy-pyridine-3-carboxamide]	> 80	> 5.52
CC[C@@H](C)Oc1nc(-c2cc(F)cc(OCC(C)C)c2)ccc1C(=O)NS(=O)(=O)c1cccc(N)n1 [Compound 59, N-[(6-amino-2-pyridyl)sulfonyl]-6-(3-fluoro-5-isobutoxy-phenyl)-2-[(1R)-1-methylpropoxy]pyridine-3-carboxamide]	30 to 80	> 5.52
COC(C)(C)CCOc1nc(-c2cc(F)cc(OCC(C)C)c2)ccc1C(=O)NS(=O)(=O)c1cccc(N)n1 [Compound 22, N-[(6-amino-2-pyridyl)sulfonyl]-6-(3-fluoro-5-isobutoxy-phenyl)-2-(3-methoxy-3-methyl-butoxy)pyridine-3-carboxamide]	30 to 80	> 5.52
CC(C)COc1cc(F)cc(-c2ccc(C(=O)NS(=O)(=O)c3cccc(N)n3)c(OCCC(C)(C)C)n2)c1 [Compound 3, N-[(6-amino-2-pyridyl)sulfonyl]-2-(3,3-dimethylbutoxy)-6-(3-fluoro-5-isobutoxy-phenyl)pyridine-3-carboxamide]	> 80	> 5.52
